Here are results for 6 compounds from ChEMBL document CHEMBL1157446, “Cubyl amides: novel P2X7 receptor antagonists” (Bioorg Med Chem Lett, 2008).

Assay [1] concerns the target T1, P2X purinoceptor 7 (Rattus norvegicus) (UniProt Q64663).
T1 sequence (whole entry): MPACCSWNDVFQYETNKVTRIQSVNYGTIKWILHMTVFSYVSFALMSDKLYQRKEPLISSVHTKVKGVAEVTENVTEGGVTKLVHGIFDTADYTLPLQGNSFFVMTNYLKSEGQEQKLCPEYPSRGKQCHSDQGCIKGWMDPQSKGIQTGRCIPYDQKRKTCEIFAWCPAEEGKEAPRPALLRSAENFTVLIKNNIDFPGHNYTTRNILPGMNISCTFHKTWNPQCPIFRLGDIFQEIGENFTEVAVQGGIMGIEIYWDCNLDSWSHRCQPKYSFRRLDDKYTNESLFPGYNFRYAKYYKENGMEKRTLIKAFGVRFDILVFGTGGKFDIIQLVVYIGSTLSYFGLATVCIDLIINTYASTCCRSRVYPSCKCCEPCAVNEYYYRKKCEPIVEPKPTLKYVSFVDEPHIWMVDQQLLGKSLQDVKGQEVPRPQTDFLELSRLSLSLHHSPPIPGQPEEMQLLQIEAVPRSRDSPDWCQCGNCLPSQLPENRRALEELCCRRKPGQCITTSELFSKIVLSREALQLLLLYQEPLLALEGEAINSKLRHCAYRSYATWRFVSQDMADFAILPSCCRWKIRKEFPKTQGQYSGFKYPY
The assay can be described thus: Antagonist activity at P2X7R in BzATP-stimulated rat spinal cord assessed as decrease in fluorescent propidium iodide dye uptake at 1 uM. It counts as functional.

Assay [2] concerns the target P2Y purinoceptor 2 (Homo sapiens) (UniProt P41231). The assay can be described thus: Activity at P2Y2 receptor expressed in HEK293 cells at 10 uM to 1 nM. It counts as cell-based.
Assay [3] has as its target P2Y purinoceptor 4 (Homo sapiens) (UniProt P51582). The assay can be described thus: Agonist activity at P2Y4 receptor expressed in HEK293 cells at 10 uM to 1 nM. It counts as functional, cell-based.
Assay [4] concerns the target P2Y purinoceptor 1 (Homo sapiens) (UniProt P47900). The assay can be described thus: Activity at P2Y1 expressed in HEK293 cells at 10 uM to 1 nM. It counts as cell-based.

Molecules are shown by their SMILES. The source made the active and inactive calls. No cut-off for these calls is given here.

P2Y purinoceptor 4 (Homo sapiens), sequence (P51582 whole entry): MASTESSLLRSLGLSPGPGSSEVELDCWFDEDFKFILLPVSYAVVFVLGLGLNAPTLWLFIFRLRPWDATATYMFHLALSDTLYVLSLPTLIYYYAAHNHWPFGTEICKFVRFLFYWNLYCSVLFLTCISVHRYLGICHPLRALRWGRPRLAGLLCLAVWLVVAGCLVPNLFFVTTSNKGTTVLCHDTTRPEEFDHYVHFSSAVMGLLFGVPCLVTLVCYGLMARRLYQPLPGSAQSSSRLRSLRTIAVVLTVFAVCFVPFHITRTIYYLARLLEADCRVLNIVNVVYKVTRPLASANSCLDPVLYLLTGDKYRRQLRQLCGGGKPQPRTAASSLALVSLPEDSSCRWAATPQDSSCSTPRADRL
P2Y purinoceptor 2 (Homo sapiens), sequence (P41231 whole entry): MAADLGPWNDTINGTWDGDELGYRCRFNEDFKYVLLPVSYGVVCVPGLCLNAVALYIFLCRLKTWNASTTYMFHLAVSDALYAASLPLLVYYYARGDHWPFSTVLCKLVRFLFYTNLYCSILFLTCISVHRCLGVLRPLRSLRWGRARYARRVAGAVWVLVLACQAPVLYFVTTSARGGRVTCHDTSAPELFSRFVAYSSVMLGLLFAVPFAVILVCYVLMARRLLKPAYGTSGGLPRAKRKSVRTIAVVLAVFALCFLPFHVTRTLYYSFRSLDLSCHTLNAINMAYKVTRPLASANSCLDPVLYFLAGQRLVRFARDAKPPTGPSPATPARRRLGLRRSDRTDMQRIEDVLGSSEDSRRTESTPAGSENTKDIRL
P2Y purinoceptor 1 (Homo sapiens), sequence (P47900 whole entry): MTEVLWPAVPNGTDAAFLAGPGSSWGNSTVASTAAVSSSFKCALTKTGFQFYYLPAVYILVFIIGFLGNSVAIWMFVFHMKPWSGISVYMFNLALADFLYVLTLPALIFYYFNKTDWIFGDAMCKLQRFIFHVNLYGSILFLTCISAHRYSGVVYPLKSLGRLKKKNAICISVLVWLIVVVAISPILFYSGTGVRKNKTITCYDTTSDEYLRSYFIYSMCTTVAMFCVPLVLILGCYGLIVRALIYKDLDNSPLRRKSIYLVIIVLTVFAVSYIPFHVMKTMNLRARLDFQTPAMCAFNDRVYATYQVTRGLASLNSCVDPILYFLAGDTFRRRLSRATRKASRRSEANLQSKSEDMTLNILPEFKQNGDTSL

Turning to `COc1ccc(Cl)c(C(=O)NCC23CC4CC(CC(C4)C2)C3)c1`, the outcome in assay [1] was Active. Moreover, the outcome in assay [2], in assay [3] and in assay [4] was inactive.
Regarding `O=C(NCC12C3C4C5C3C1C5C42)c1ccccc1F` (centres undefined), in assay [1], the outcome was Active. For the same compound, the result in assay [2], in assay [3] and in assay [4] was inactive.
For the compound `O=C(NCC12CC3CC(CC(C3)C1)C2)c1ccccc1F`, the result in assay [1] was Active. For the same compound, the result in assay [2], in assay [3] and in assay [4] was inactive.
On to `O=C(NCC12C3C4C5C3C1C5C42)c1ccc(F)cc1` (centres undefined), for which the outcome in assay [1] was Active. Also, the result in assay [2], in assay [3] and in assay [4] was inactive.
`COc1ccc(Cl)c(C(=O)NCC23C4C5C6C4C2C6C53)c1` (centres undefined): the outcome in assay [1] was Active. In addition, the outcome in assay [2], in assay [3] and in assay [4] was inactive.
On to `O=C(NCC12CC3CC(CC(C3)C1)C2)c1ccc(F)cc1`, for which, in assay [1], the outcome was Active. Further, the outcome in assay [2], in assay [3] and in assay [4] was inactive.
